Values quoted from earlier work as cited in patent US20230210937A1, “COMPOSITIONS AND METHODS FOR THE TREATMENT AND/OR PROPHYLAXIS OF DIABETES AND OTHER CONDITIONS” (LIFELOCK BIOSCIENCE SOLUTIONS INC., priority 2019, published 2023).
One block for each molecule: values may come before it.

Legend:
[1] = tested on: colon cancer cell line Caco-2
PAK1 = PAK1 (Rattus norvegicus, UniProt P35465); conditions: skeletal muscle cells, co-immunoprecipitation
mTORC1 = mTORC1 (Homo sapiens, UniProt P42345)
[2] = Caco-2, 100 ng/mL PMA, 2.5 mM IP6

Chain of PAK1 (P35465 2-544 limits assumed): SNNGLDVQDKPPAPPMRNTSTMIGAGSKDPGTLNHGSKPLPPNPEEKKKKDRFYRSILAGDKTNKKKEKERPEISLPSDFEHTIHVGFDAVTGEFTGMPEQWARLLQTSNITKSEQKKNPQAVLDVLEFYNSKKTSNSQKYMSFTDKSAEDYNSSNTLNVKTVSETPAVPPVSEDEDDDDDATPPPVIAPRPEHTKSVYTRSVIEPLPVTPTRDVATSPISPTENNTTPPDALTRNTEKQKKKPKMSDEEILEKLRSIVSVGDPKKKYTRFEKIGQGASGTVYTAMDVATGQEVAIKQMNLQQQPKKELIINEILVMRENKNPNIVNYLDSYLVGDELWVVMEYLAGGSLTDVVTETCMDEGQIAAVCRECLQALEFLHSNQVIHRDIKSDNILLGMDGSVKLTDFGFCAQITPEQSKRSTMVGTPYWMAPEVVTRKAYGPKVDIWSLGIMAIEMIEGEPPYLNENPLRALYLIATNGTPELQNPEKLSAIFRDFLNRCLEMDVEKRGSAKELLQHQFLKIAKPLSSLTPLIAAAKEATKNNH

Compound: O=P(O)(O)OC1C(OP(=O)(O)O)C(OP(=O)(O)O)C(OP(=O)(O)O)C(OP(=O)(O)O)C1OP(=O)(O)O [IP6, (1R,2S,3R,4R,5S,6s)-cyclohexane-1,2,3,4,5,6-hexayl hexakis[dihydrogen (phosphate)]]
MMP-1 expression, PMA and IP6 in comparison to PMA-stimulated cells [1, 2]: significant decrease
MMP-9 transcription induced by PMA [1, 2]: down-regulated
level of both MMP-2 and MMP-3 mRNAs in PMA-stimulated cells [1, 2]: decreased
MMP-2, MMP-3, MMP-10, MMP-13, and TIMP-1 expression ([1]; Caco-2, 2.5 mM of IP6, 6 and 12 h): significant decrease

insulin-stimulated associations of p41ARC, N-WASP, cortactin and actin (PAK1): ablated
Compound: Oc1ccc2ccccc2c1SSc1c(O)ccc2ccccc12 [IPA3]

TSC1/2 interaction (mTORC1): did not alter
raptor-mTOR association (mTORC1; leading to inhibition of mTORC1 activity): able to dissociate raptor from mTOR
phosphorylation of p70S6kinase 1 (S6K1) and 4E-BP1 (mTORC1; numerous cancer cell lines): inhibits
Compound: COc1cc(/C=C/C(=O)CC(=O)/C=C/c2ccc(O)c(OC)c2)ccc1O [curcumin, (1E,6E)-1,7-Bis(4-hydroxy-3-methoxyphenyl)hepta-1,6-diene-3,5-dione]
